Measurements reported in PubChem BioAssay AID1963841 (Molecular Pharmacology Branch, DTP, NCI, 2024).

Tested on: 439559-082-T-J2-PDC spheroid viability
Assay: Anticancer human tumor 439559-082-T-J2-PDC patient-derived colon adenocarcinoma cell line growth inhibition [POLQ]
Conditions: spheroids with HUVEC and MSC; for IC50: curve of first compound; for viability, T/C: stronger effect = lower value
How it was run: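 Three-cell-type spheroids modelling solid tumor plus stroma served as the readout system; POL inhibitors were tested individually and in combination, concentration ranges set by clinical Cmax where known.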
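Also: spheroids exposed to compounds for seven days before readout.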
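For viability, T/C in this document: 100% = DMSO vehicle control viability.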

For `CC(=O)O[C@H]1C(=O)[C@@]2(C)[C@H]([C@H](OC(=O)c3ccccc3)[C@]3(O)C[C@H](OC(=O)[C@H](O)[C@@H](NC(=O)c4ccccc4)c4ccccc4)C(C)=C1C3(C)C)[C@]1(OC(C)=O)CO[C@@H]1C[C@@H]2O` + Nc1ccc(C#CCN(C(=O)Cc2ncc(C(F)(F)F)cc2C(F)(F)F)c2ccc(F)cc2)nn1, the IC50 (second compound 0.0316 µM) was 730 nM, the IC50 (second compound 0.1 µM) was 1250 nM and the IC50 (second compound 0.316 µM) was 807 nM. For the same compound, the IC50 (second compound 1 µM) was 898 nM, the IC50 (second compound 3.16 µM) was 511 nM and the IC50 (second compound 10 µM) was 363 nM. The viability, T/C (second compound 0.0316 µM, first compound 0.00949 µM) was 51.6%, the viability, T/C (second compound 0.0316 µM, first compound 0.03 µM) was 54.9% and the viability, T/C (second compound 0.0316 µM, first compound 0.0949 µM) was 75.6%. For the same compound, the viability, T/C (second compound 0.0316 µM, first compound 0.3 µM) was 77.2%, the viability, T/C (second compound 0.0316 µM, first compound 0.949 µM) was 45.6% and the viability, T/C (second compound 0.0316 µM, first compound 3 µM) was 22.1%. It also gave a viability, T/C (second compound 0.1 µM, first compound 0.00949 µM) of 53%, a viability, T/C (second compound 0.1 µM, first compound 0.03 µM) of 53.8% and a viability, T/C (second compound 0.1 µM, first compound 0.0949 µM) of 72.7%. It also gave a viability, T/C (second compound 0.1 µM, first compound 0.3 µM) of 77.3%, a viability, T/C (second compound 0.1 µM, first compound 0.949 µM) of 53.2% and a viability, T/C (second compound 0.1 µM, first compound 3 µM) of 25.8%. For the same compound, the viability, T/C (second compound 0.316 µM, first compound 0.00949 µM) was 54%, the viability, T/C (second compound 0.316 µM, first compound 0.03 µM) was 58.5% and the viability, T/C (second compound 0.316 µM, first compound 0.0949 µM) was 79.9%. The viability, T/C (second compound 0.316 µM, first compound 0.3 µM) was 78.7%, the viability, T/C (second compound 0.316 µM, first compound 0.949 µM) was 47.1% and the viability, T/C (second compound 0.316 µM, first compound 3 µM) was 18.9%. It also gave a viability, T/C (second compound 1 µM, first compound 0.00949 µM) of 46.2%, a viability, T/C (second compound 1 µM, first compound 0.03 µM) of 56.7% and a viability, T/C (second compound 1 µM, first compound 0.0949 µM) of 82.3%. The viability, T/C (second compound 1 µM, first compound 0.3 µM) was 79.8%, the viability, T/C (second compound 1 µM, first compound 0.949 µM) was 49.2% and the viability, T/C (second compound 1 µM, first compound 3 µM) was 19%. For the same compound, the viability, T/C (second compound 3.16 µM, first compound 0.00949 µM) was 37.2%, the viability, T/C (second compound 3.16 µM, first compound 0.03 µM) was 53.5% and the viability, T/C (second compound 3.16 µM, first compound 0.0949 µM) was 81.9%. For the same compound, the viability, T/C (second compound 3.16 µM, first compound 0.3 µM) was 69%, the viability, T/C (second compound 3.16 µM, first compound 0.949 µM) was 37.9% and the viability, T/C (second compound 3.16 µM, first compound 3 µM) was 19.5%. It also gave a viability, T/C (second compound 10 µM, first compound 0.00949 µM) of 42.8%, a viability, T/C (second compound 10 µM, first compound 0.03 µM) of 48% and a viability, T/C (second compound 10 µM, first compound 0.0949 µM) of 68.8%. It also gave a viability, T/C (second compound 10 µM, first compound 0.3 µM) of 51.7%, a viability, T/C (second compound 10 µM, first compound 0.949 µM) of 38% and a viability, T/C (second compound 10 µM, first compound 3 µM) of 21.9%.
`CC[C@@]1(O)C(=O)OCc2c1cc1n(c2=O)Cc2cc3c(CN(C)C)c(O)ccc3nc2-1` + Nc1ccc(C#CCN(C(=O)Cc2ncc(C(F)(F)F)cc2C(F)(F)F)c2ccc(F)cc2)nn1 was tested, and the IC50 (second compound 0.0316 µM) was > 100 nM, the IC50 (second compound 0.1 µM) was > 100 nM and the IC50 (second compound 0.316 µM) was > 100 nM. For the same compound, the IC50 (second compound 1 µM) was > 100 nM, the IC50 (second compound 3.16 µM) was > 100 nM and the IC50 (second compound 10 µM) was > 100 nM. For the same compound, the viability, T/C (second compound 0.0316 µM, first compound 0.000316 µM) was 104%, the viability, T/C (second compound 0.0316 µM, first compound 0.001 µM) was 97% and the viability, T/C (second compound 0.0316 µM, first compound 0.00316 µM) was 81.4%. It also gave a viability, T/C (second compound 0.0316 µM, first compound 0.01 µM) of 108%, a viability, T/C (second compound 0.0316 µM, first compound 0.0316 µM) of 85.8% and a viability, T/C (second compound 0.0316 µM, first compound 0.1 µM) of 82.8%. For the same compound, the viability, T/C (second compound 0.1 µM, first compound 0.000316 µM) was 107%, the viability, T/C (second compound 0.1 µM, first compound 0.001 µM) was 103% and the viability, T/C (second compound 0.1 µM, first compound 0.00316 µM) was 96.3%. The viability, T/C (second compound 0.1 µM, first compound 0.01 µM) was 105%, the viability, T/C (second compound 0.1 µM, first compound 0.0316 µM) was 85.9% and the viability, T/C (second compound 0.1 µM, first compound 0.1 µM) was 76.3%. For the same compound, the viability, T/C (second compound 0.316 µM, first compound 0.000316 µM) was 108%, the viability, T/C (second compound 0.316 µM, first compound 0.001 µM) was 110% and the viability, T/C (second compound 0.316 µM, first compound 0.00316 µM) was 101%. The viability, T/C (second compound 0.316 µM, first compound 0.01 µM) was 104%, the viability, T/C (second compound 0.316 µM, first compound 0.0316 µM) was 93.6% and the viability, T/C (second compound 0.316 µM, first compound 0.1 µM) was 79%. The viability, T/C (second compound 1 µM, first compound 0.000316 µM) was 86.7%, the viability, T/C (second compound 1 µM, first compound 0.001 µM) was 98.6% and the viability, T/C (second compound 1 µM, first compound 0.00316 µM) was 83.8%. For the same compound, the viability, T/C (second compound 1 µM, first compound 0.01 µM) was 97.9%, the viability, T/C (second compound 1 µM, first compound 0.0316 µM) was 88.7% and the viability, T/C (second compound 1 µM, first compound 0.1 µM) was 75.4%. It also gave a viability, T/C (second compound 3.16 µM, first compound 0.000316 µM) of 114%, a viability, T/C (second compound 3.16 µM, first compound 0.001 µM) of 113% and a viability, T/C (second compound 3.16 µM, first compound 0.00316 µM) of 92%. The viability, T/C (second compound 3.16 µM, first compound 0.01 µM) was 88.4%, the viability, T/C (second compound 3.16 µM, first compound 0.0316 µM) was 88% and the viability, T/C (second compound 3.16 µM, first compound 0.1 µM) was 89.9%. The viability, T/C (second compound 10 µM, first compound 0.000316 µM) was 91.8%, the viability, T/C (second compound 10 µM, first compound 0.001 µM) was 94.8% and the viability, T/C (second compound 10 µM, first compound 0.00316 µM) was 87.9%. The viability, T/C (second compound 10 µM, first compound 0.01 µM) was 90.2%, the viability, T/C (second compound 10 µM, first compound 0.0316 µM) was 86% and the viability, T/C (second compound 10 µM, first compound 0.1 µM) was 75.9%.
